Consider 25 compounds from ChEMBL document CHEMBL4742401, “Cyclin-dependent kinase inhibitors and methods of use” (2019).

Structures are written as SMILES.

One test concerns the target T1, Serine/threonine-protein kinase Nek1 (Homo sapiens, UniProt Q96PY6).
T1 sequence (Q96PY6 whole entry): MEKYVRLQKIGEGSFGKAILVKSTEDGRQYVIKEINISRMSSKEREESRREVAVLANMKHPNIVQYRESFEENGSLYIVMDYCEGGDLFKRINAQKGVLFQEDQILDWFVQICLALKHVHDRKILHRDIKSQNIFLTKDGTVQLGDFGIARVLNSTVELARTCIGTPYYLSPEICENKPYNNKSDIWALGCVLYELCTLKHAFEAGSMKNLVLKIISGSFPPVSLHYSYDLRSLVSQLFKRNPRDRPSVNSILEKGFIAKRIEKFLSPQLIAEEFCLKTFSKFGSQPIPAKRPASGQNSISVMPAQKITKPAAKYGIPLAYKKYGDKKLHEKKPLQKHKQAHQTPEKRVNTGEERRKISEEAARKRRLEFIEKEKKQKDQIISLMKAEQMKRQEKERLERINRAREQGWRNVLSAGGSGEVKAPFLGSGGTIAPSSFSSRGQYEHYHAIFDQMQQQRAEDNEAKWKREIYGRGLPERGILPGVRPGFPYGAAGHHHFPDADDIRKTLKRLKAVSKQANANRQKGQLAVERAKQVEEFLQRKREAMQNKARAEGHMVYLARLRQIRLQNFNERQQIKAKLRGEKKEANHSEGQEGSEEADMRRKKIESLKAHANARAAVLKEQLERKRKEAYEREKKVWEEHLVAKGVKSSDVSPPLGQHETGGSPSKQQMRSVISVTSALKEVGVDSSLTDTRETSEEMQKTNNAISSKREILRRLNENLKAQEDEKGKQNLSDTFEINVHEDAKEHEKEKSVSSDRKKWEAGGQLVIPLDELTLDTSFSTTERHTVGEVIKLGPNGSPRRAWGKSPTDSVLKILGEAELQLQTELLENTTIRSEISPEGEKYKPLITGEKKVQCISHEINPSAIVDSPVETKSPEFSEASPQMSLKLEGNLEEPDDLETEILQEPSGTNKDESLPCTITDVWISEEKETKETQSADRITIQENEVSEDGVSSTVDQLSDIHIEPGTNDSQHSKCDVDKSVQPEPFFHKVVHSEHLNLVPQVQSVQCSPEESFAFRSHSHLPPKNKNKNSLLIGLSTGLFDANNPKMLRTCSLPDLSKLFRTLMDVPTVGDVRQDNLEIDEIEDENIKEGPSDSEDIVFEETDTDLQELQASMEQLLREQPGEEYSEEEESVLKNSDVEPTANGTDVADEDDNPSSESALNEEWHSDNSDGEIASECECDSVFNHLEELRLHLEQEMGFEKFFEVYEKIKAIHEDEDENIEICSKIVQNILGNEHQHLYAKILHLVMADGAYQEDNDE
In words: Inhibition of NEK1 (unknown origin).
As a reminder, the IC50 is the midpoint of a concentration-inhibition curve. High values mean weaker potency, low ones greater potency. On to `CN(C)[C@H]1CC[C@@]2(C)C(=CC[C@H]3[C@@H]4CC[C@H](c5ccc6ccncc6c5)[C@@]4(C)CC[C@@H]32)C1`, for which the IC50 was more than 10000 nM.

For a further test, the target named is T2, Cyclin-dependent kinase 8 (Homo sapiens, UniProt P49336). In words: Inhibition of CDK8 (unknown origin) by competitive kinase binding based Lantha-screen Eu kinase binding assay.
T2 sequence (P49336 whole entry): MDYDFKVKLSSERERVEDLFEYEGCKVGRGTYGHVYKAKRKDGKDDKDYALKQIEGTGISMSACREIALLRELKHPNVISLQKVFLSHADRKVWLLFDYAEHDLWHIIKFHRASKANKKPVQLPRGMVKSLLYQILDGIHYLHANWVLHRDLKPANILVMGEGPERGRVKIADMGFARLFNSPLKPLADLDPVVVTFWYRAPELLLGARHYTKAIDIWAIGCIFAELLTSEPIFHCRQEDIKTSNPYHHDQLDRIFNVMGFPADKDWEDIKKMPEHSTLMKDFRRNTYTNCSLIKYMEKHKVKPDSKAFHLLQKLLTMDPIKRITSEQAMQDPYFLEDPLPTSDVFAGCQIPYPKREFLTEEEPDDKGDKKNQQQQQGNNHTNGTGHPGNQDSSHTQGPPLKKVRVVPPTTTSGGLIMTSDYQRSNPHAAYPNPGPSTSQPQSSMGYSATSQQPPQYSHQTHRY
For the compound `C[C@]12CC[C@H](O)CC1=CC[C@@H]1[C@@H]2CC[C@]2(C)C(c3ccc4[nH]ncc4c3)=CC[C@@H]12`, the IC50 was not below 6000 nM.

Compound `CN(C)[C@@H]1CC[C@@]2(C)[C@@H](CC[C@@H]3[C@@H]2CC[C@]2(C)[C@@H](c4ccc5ccncc5c4)CC[C@@H]32)C1` returned a half-maximal inhibitory concentration (IC50) not above 100 nM. On the same count and under the same terms, the same measure for `C[C@]12CC[C@H](O)CC1=CC[C@@H]1[C@@H]2CC[C@]2(C)C(c3ccc4nc(N)ncc4c3)=CC[C@@H]12`: 2000 nM; for `C[C@]12CC[C@H](O)CC1=CC[C@@H]1[C@@H]2CC[C@]2(C)C(c3ccc4cn[nH]c4c3)=CC[C@@H]12`: not below 6000 nM. On the same count and under the same terms, as for `C[C@]12CC[C@H]3[C@@H](CC=C4C[C@@H](O)CC[C@@]43C)[C@@H]1CC[C@@H]2c1ccc2c(N)n[nH]c2c1`, the figure is 301 nM; as for `C[C@]12CC[C@H]3[C@@H](CC=C4C[C@@H](O)CC[C@@]43C)[C@@H]1CC[C@@H]2c1ccc2nc(N)ncc2c1`, 101 nM; as for `C[C@]12CC[C@H](N3CCOCC3)C[C@@H]1CC[C@@H]1[C@@H]2CC[C@]2(C)[C@@H](c3ccc4ccncc4c3)CC[C@@H]12`, 101 nM. Still for that read-out and setting: the same measure for `CN(C)[C@@H]1CC[C@@]2(C)[C@@H](CC[C@@H]3[C@@H]2CC[C@]2(C)C(c4ccc5ccncc5c4)=CC[C@@H]32)C1`: 201 nM; for `CC(=O)N(C)[C@H]1CC[C@@]2(C)[C@@H](CC[C@@H]3[C@@H]2CC[C@]2(C)[C@@H](c4ccc5ccncc5c4)CC[C@@H]32)C1`: not above 100 nM. In turn, `C[C@]12CC[C@H]3[C@@H](CC=C4C[C@@H](O)CC[C@@]43C)[C@@H]1CC[C@@H]2c1ccc2cnncc2c1` had an IC50 not below 6000 nM. `C[C@]12CC[C@H]3[C@@H](CC=C4C[C@@H](O)CC[C@@]43C)[C@@H]1CC[C@@H]2c1ccc2[nH]ncc2c1` gave an IC50 not below 6000 nM. In turn, `CN(C)[C@H]1CC[C@@]2(C)C(=CC[C@H]3[C@@H]4CC[C@H](c5ccc6ccncc6c5)[C@@]4(C)CC[C@@H]32)C1` displayed an IC50 not above 100 nM.

Regarding `C[C@]12CC[C@H](O)C[C@@H]1CC[C@@H]1[C@@H]2CC[C@]2(C)[C@@H](c3ccc4ccncc4c3)CC[C@@H]12`, the concentration for half-maximal inhibition (IC50) turned out to be 201 nM. In turn, `C[C@]12CC[C@H](O)CC1=CC[C@@H]1[C@@H]2CC[C@]2(C)C(c3ccc4cnccc4c3)=CC[C@@H]12` had a concentration for half-maximal inhibition (IC50) not below 6000 nM. On the same count and under the same terms, the same measure for `C[C@]12CC[C@H]3[C@@H](CC=C4C[C@@H](O)CC[C@@]43C)[C@@H]1CC[C@@H]2c1ccc2cnccc2c1`: 2000 nM; for `CN(C)[C@H]1CC[C@@]2(C)[C@@H](CC[C@@H]3[C@@H]2CC[C@]2(C)[C@@H](c4ccc5ccncc5c4)CC[C@@H]32)C1`: not above 100 nM. In the case of `C[C@]12CC[C@H](n3ccnn3)C[C@@H]1CC[C@@H]1[C@@H]2CC[C@]2(C)[C@@H](c3ccc4ccncc4c3)CC[C@@H]12`, the IC50 is not above 100 nM. As to `CN[C@H]1CC[C@@]2(C)[C@@H](CC[C@@H]3[C@@H]2CC[C@]2(C)[C@@H](c4ccc5ccncc5c4)CC[C@@H]32)C1`, the half-inhibitory concentration (IC50) was determined as 701 nM. For the compound `C[C@]12CC[C@H](O)CC1=CC[C@@H]1[C@@H]2CC[C@]2(C)C(c3ccc4cnncc4c3)=CC[C@@H]12`, the IC50 was not below 6000 nM.

On to `C[C@]12CC[C@H](O)C[C@@H]1CC[C@@H]1[C@@H]2CC[C@]2(C)C(c3ccc4ccncc4c3)=CC[C@@H]12`, for which the 50% inhibitory concentration (IC50) was 701 nM.

In turn, `CN(C)[C@H]1CC[C@@]2(C)[C@@H](CC[C@@H]3[C@@H]2CC[C@]2(C)C(c4ccc5ccncc5c4)=CC[C@@H]32)C1` displayed a concentration for half-maximal inhibition (IC50) of 101 nM. On to `C[C@]12CC[C@H](O)CC1=CC[C@@H]1[C@@H]2CC[C@]2(C)C(c3ccc4c(N)n[nH]c4c3)=CC[C@@H]12`, for which the IC50 was 701 nM. `C[C@]12CC[C@H]3[C@@H](CC=C4C[C@@H](O)CC[C@@]43C)[C@@H]1CC[C@@H]2c1ccc2cn[nH]c2c1` yielded a half-inhibitory concentration (IC50) not below 6000 nM. `C[C@]12CC[C@H](O)CC1=CC[C@@H]1[C@@H]2CC[C@]2(C)C(c3ccc4ccncc4c3)=CC[C@@H]12` registered an IC50 of 101 nM. On the same count and under the same terms, the same measure for `C[C@]12CC[C@H]3[C@@H](CC=C4C[C@@H](O)CC[C@@]43C)[C@@H]1CC[C@@H]2c1ccc2ccncc2c1`: not above 100 nM.

The next test concerns the target T2, Cyclin-dependent kinase 8. As to the kind of experiment: Inhibition of CDK8 in human HepG2 cells assessed as reduction in IFNgamma-induced STATl S727 phosphorylation incubated for 18 hrs by Western blot analysis. The test is classed as cell-based.
Turning to `CN(C)[C@H]1CC[C@@]2(C)C(=CC[C@H]3[C@@H]4CC[C@H](c5ccc6ccncc6c5)[C@@]4(C)CC[C@@H]32)C1`, the inhibition entry was “Dose-dependent effect”.
